Active and inactive are the calls of the source.
Columns and labels:
[1] = molecular target: T1, Carboxy-terminal domain RNA polymerase II polypeptide A small phosphatase 1 (Homo sapiens, UniProt Q9GZU7); assay: CTDSP1 inhibitors, concentration-response, biochemical, absorbance readout, ultra-high-throughput screen actives (AID 540297); assay type: functional
T1 sequence (Q9GZU7 whole entry): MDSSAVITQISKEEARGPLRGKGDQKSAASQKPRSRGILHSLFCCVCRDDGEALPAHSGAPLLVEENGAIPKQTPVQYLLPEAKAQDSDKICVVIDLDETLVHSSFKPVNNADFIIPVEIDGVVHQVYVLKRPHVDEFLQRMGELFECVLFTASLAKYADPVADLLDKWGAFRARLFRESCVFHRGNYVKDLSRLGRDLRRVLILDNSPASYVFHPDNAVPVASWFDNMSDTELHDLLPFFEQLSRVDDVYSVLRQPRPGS

[2] = molecular target: T2, Rac GTPase-activating protein 1 (Homo sapiens, UniProt Q9H0H5); assay: blockers of MgcRacGAP-driven Rac1 GTP hydrolysis – biochemical, ADP Hunter fluorescence, primary and confirmatory, confirmation (AID 624330); assay type: functional
T2 sequence (Q9H0H5 whole entry): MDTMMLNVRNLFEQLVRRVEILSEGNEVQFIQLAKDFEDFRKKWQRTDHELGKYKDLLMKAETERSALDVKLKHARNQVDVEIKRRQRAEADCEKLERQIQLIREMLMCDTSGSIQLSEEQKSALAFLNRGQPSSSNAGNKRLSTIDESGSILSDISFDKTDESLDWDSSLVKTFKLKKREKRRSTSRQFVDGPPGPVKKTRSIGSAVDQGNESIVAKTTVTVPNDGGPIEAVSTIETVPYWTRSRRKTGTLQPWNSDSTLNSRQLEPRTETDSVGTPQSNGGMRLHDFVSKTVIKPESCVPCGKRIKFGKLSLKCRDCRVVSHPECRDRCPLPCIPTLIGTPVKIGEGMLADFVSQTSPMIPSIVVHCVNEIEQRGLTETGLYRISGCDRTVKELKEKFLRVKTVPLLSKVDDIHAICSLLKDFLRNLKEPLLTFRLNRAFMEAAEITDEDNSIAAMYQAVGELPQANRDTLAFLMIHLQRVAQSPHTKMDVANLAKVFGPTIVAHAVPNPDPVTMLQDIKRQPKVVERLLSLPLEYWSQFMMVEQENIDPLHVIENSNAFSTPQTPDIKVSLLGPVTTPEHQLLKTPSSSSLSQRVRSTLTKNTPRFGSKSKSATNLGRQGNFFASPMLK

[3] = molecular target: DNA (cytosine-5)-methyltransferase 1 (Homo sapiens, UniProt P26358); assay: inhibition of DNA methylation by DNMT1 – biochemical, fluorescent molecular beacon, confirmation (AID 602386); assay type: functional
HEK293 [4] = assay: membrane integrity loss in HEK cells – cell-based, fluorescence, cytotoxicity control for IDE activator project, dose response (AID 588440); assay type: functional; details: Homo sapiens;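 further: cytotoxicity by LDH release measuring loss of membrane integrity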
Insulin-degrading enzyme [5] = molecular target: T3, Insulin-degrading enzyme (Homo sapiens, UniProt P14735); assay: cellular IDE activation of Abeta substrate cleavage – fluorescence polarization, HEK cells, dose response (AID 588439); assay type: functional, cell-based
T3 sequence (P14735 whole entry): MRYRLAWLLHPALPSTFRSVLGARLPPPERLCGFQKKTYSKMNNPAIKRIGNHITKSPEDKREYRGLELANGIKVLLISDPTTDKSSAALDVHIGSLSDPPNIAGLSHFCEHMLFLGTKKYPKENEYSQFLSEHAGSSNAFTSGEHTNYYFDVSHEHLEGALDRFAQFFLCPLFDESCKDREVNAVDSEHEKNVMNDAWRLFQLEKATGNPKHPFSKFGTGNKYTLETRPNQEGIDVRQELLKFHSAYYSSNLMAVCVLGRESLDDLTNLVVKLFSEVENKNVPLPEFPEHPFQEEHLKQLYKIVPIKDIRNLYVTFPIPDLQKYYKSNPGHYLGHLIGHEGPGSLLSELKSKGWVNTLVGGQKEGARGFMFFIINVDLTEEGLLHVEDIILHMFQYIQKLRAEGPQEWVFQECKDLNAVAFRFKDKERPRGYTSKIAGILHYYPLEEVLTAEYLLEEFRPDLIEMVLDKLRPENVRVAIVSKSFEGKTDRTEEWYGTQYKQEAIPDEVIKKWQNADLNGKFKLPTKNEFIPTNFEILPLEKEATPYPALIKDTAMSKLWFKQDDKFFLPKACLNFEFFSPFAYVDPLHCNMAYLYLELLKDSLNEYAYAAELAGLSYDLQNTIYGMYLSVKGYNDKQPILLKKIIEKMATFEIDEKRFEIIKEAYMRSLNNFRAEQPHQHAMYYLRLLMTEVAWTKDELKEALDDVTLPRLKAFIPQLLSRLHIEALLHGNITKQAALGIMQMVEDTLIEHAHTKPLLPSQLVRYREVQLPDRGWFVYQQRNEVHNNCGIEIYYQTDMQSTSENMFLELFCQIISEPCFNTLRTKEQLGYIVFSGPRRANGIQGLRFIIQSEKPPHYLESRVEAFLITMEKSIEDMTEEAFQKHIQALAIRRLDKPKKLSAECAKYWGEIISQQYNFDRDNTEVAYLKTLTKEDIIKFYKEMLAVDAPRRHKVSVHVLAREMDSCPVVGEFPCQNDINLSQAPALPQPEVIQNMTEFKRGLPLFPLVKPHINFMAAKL

Insulin-degrading enzyme [6] = molecular target: T3, Insulin-degrading enzyme; assay: recombinant IDE activation, cell-free – biochemical, fluorescence polarization, counter-screen for IDE activator project, dose response (AID 588681)
HEK293 [7] = assay: optical interference in Abeta FP readout, dose response, artefact control for IDE activator project, biochemical, fluorescence polarization (AID 588442); assay type: functional, cell-based; details: Homo sapiens
[8] = molecular target: DNA repair and recombination protein RAD54-like (Homo sapiens, UniProt Q92698); assay: RAD54 Holliday junction migration blockers – biochemical, fluorescence, cherry-picked samples, dose series, confirmation (AID 651657); assay type: functional
[9] = molecular target: T4, DNA repair protein RAD52 homolog (Homo sapiens, UniProt P43351); assay type: functional, biochemical
T4 sequence (P43351 whole entry): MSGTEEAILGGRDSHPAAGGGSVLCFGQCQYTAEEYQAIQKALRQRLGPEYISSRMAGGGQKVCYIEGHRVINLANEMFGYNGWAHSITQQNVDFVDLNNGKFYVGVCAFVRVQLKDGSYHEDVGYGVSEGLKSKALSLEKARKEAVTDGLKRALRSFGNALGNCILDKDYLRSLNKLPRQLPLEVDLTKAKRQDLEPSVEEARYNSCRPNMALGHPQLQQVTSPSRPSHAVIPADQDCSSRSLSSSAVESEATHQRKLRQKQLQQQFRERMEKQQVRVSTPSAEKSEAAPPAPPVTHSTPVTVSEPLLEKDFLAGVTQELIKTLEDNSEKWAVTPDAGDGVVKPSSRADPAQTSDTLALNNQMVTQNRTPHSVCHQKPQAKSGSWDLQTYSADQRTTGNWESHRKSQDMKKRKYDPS

Protein Wnt-3a = Protein Wnt-3a (Mus musculus, UniProt P27467); assay: antagonism of Wnt3a pathway luciferase reporter – Wnt-LIGHT cells, luminescence, selectivity assay for Gli-SUFU antagonist project, dose response (AID 651570); assay type: functional; details: read-out: IC50_Mean;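 further: Wnt-LIGHT reporter cells stimulated with conditioned medium from Wnt3a-producing cells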
[10] = molecular target: Dual specificity protein phosphatase 3 (Homo sapiens, UniProt P51452); assay: VHR phosphatase inhibition, dose response, selectivity assay for STEP inhibitor project, biochemical (AID 602374); assay type: functional; details: read-out: IC50_Mean
[11] = molecular target: Tyrosine-protein phosphatase non-receptor type 11 (Homo sapiens, UniProt Q06124); assay: PTPN11 enzyme inhibitors – biochemical, selectivity assay for STEP inhibitor project, dose response (AID 602367); assay type: functional; details: read-out: IC50_Mean
[12] = molecular target: Tyrosine-protein phosphatase non-receptor type 5 (Homo sapiens, UniProt P54829); assay: PTPN5 enzyme inhibition – biochemical, fluorescence intensity, uHTS hits, confirmation (AID 602372); assay type: functional; details: read-out: IC50_Mean
[13] = molecular target: ADP-ribosylation factor GTPase-activating protein 1 (Rattus norvegicus, UniProt Q62848); assay: Fluorescence polarization-based biochemical high throughput dose response screening assay to identify inhibitors of ADP-ribosylation factor GTPase activating protein 1 (ARFGAP1).; assay type: functional
[14] = NIH3T3 cell viability loss – ATP luminescence, mouse fibroblasts, counter-screen, dose response (AID 2010); assay type: functional, cell-based;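 further: cells exposed to compound for about 90 hours before reading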
INS1 = assay: INS-1E survival protection against cytokine death – cell-based, luminescence, retest, dose response (AID 449756); assay type: functional; details: Rattus norvegicus;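 further: cell death triggered by IL-1 beta plus TNF-alpha plus IFN-gamma mixture; protective hits raise ATP signal compared with cytokine alone wells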
[15] = Trypanosoma cruzi growth suppression in host cells – NIH3T3 host cells, beta-gal luminescence, confirmation (AID 2044); assay type: functional, cell-based;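 further: intracellular parasites grown in NIH/3T3 mouse fibroblasts as host cells; luminescent beta-galactosidase reporter signal from transgenic T. cruzi replicating inside host cells; inhibitors lower the luminescence signal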
Steroidogenic factor 1 = Steroidogenic factor 1 (Homo sapiens, UniProt Q13285); assay: Counterscreen for inverse agonists of the liver receptor homolog-1 (LRH-1; NR5A2): Luminescence-based cell-based high throughput dose response assay to identify inverse agonists of the Steroidogenic Factor 1 Nuclear Receptor (SF1; NR5A1).; assay type: functional
[16] = nonselective StAR promoter luciferase inhibitors – cell-based, luminescence, luciferase reporter, counter-screen for LRH-1 inverse agonist project, dose response (AID 651969); assay type: functional
[17] = molecular target: Nuclear receptor subfamily 5 group A member 2 (Homo sapiens, UniProt O00482); assay type: functional, cell-based;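 further: HEK293T cells transfected with LRH-1 and a StAR promoter luciferase reporter; potency for inhibitors that lower LRH-1 driven reporter light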
[18] = decrease of insulin promoter-GFP reporter – imaging, high-content screening, mouse beta cells (AID 1628); assay type: functional; details: MIN6
[19] = molecular target: T5, Ubiquitin-conjugating enzyme E2 N (Homo sapiens, UniProt P61088); assay type: functional;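 further: Dose-response confirmation in a TR-FRET assay detecting UBC13-driven polyubiquitin chain formation, inhibition measured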
T5 sequence (P61088 whole entry): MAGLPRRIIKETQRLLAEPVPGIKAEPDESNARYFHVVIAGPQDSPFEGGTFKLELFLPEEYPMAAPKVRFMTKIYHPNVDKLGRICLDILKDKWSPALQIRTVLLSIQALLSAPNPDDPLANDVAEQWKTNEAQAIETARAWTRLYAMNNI

[20] = MIN6 cell viability loss – mouse insulinoma, cytotoxicity control, dose response (AID 2122); assay type: functional;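 further: confirmatory high-throughput counterscreen run to flag cytotoxic compounds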
[21] = viability of HCT116 lacking mutant beta-catenin – cell-based, human colon tumor, dose response (AID 1045); assay type: functional;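 further: HCT116 colon tumor cells with beta catenin knocked out; cells exposed to compound for 60 hours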
[22] = microbe, parasite or virus in culture; assay type: functional; details: Mycobacterium tuberculosis
[23] = viability of PTEN-deleted HCT116 cells – cell-based, HCT116 PTEN knockout, dose response (AID 1047); assay type: functional;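 further: HCT116 colon tumor cells with PTEN knocked out; cells exposed to compound for 60 hours before readout; potency for loss of cell viability measured by luminescence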

Chain of DNA (cytosine-5)-methyltransferase 1 (P26358 whole entry): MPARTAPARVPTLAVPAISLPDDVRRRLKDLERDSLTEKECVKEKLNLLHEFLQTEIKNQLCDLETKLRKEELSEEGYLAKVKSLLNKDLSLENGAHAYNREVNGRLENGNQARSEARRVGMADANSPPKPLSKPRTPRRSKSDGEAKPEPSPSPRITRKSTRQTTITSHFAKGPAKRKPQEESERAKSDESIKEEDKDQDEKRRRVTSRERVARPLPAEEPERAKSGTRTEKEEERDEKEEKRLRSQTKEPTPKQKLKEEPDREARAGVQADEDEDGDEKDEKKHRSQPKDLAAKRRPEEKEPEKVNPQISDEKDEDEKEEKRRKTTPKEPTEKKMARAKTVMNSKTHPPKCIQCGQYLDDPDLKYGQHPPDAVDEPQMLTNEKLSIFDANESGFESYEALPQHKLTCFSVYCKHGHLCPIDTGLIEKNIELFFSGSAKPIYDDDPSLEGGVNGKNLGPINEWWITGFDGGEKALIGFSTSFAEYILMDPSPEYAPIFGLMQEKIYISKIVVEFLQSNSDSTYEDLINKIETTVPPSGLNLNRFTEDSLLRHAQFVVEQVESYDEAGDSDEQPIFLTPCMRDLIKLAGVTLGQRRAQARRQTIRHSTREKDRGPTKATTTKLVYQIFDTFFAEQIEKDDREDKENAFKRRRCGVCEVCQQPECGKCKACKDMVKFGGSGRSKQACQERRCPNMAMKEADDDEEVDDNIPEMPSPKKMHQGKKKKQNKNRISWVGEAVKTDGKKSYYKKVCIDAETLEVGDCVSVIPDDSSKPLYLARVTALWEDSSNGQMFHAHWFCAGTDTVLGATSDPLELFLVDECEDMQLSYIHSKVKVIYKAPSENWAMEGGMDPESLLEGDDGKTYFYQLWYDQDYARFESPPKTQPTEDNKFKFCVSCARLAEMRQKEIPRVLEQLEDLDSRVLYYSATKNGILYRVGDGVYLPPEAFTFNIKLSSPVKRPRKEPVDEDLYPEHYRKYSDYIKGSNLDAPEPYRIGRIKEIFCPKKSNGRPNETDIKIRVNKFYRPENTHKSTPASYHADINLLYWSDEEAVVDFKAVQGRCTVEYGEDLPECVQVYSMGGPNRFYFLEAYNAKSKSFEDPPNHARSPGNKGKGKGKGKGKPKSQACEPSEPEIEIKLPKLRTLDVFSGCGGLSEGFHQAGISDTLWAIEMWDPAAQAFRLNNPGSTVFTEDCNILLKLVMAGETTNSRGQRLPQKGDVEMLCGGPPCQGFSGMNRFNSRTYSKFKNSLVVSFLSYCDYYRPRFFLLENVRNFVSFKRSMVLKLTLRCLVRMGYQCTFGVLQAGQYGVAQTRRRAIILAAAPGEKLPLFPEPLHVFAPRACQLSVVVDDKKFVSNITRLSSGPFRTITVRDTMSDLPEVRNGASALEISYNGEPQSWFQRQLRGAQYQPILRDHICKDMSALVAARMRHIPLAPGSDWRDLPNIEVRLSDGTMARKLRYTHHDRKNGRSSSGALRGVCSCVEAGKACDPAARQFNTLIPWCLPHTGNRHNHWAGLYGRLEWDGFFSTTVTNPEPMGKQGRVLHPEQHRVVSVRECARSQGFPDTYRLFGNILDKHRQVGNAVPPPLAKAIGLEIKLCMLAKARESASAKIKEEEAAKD
Chain of ADP-ribosylation factor GTPase-activating protein 1 (Q62848 whole entry): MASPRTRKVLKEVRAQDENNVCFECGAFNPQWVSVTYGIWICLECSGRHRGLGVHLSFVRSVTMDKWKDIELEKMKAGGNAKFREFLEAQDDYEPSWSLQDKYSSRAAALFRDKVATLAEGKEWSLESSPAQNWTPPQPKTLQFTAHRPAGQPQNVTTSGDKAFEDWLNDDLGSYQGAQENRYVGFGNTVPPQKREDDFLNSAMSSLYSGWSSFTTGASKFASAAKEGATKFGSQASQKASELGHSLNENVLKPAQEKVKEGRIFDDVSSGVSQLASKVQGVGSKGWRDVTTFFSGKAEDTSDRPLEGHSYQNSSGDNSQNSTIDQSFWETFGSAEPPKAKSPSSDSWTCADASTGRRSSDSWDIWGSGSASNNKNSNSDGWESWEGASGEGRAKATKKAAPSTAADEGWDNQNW
Chain of DNA repair and recombination protein RAD54-like (Q92698 whole entry): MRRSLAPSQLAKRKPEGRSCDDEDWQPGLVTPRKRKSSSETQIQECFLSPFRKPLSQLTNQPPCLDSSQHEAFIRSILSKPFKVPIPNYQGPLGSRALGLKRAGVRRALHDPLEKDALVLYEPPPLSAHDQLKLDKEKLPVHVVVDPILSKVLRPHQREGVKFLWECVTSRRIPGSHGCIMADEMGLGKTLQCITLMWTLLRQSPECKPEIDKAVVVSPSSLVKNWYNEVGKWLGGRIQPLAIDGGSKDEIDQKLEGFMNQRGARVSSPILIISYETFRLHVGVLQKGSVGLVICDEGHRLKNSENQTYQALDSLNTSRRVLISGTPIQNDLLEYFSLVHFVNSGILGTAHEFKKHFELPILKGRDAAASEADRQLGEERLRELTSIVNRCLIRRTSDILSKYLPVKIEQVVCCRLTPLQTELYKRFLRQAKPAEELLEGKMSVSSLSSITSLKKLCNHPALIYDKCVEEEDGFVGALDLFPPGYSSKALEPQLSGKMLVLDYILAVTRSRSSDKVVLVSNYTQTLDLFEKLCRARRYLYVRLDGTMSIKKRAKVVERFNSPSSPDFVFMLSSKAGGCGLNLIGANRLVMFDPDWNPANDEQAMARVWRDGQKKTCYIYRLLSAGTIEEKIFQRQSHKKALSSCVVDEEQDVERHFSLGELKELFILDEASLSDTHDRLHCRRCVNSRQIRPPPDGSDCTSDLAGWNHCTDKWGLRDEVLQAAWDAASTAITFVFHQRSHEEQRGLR
Chain of Steroidogenic factor 1 (Q13285 whole entry): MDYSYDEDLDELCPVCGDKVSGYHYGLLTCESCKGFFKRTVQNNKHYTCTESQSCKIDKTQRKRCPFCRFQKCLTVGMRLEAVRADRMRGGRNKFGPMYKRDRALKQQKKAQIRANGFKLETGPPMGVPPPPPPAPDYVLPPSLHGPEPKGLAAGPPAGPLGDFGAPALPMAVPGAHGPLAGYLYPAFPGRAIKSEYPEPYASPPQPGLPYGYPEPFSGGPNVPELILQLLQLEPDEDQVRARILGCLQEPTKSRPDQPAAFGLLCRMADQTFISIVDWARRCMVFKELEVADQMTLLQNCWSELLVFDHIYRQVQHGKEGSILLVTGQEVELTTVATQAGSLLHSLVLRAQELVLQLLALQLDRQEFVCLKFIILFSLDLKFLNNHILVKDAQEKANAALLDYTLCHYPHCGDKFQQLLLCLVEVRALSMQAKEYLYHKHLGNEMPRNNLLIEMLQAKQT
Chain of Nuclear receptor subfamily 5 group A member 2 (O00482 whole entry): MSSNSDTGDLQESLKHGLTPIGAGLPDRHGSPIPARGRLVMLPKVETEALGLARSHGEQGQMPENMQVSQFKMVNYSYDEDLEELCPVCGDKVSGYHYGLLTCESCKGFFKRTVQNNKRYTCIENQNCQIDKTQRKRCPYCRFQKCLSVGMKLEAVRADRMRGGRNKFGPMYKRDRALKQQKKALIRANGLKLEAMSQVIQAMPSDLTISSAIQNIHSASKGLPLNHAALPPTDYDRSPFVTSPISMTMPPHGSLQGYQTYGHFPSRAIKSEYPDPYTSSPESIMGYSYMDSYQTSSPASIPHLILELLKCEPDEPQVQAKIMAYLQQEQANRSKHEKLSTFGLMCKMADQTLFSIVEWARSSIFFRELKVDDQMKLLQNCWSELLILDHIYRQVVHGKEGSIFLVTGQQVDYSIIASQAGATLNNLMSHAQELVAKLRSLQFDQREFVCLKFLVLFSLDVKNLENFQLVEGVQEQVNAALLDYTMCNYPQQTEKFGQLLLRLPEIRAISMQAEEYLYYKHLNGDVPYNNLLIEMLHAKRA
Chain of Protein Wnt-3a (P27467 whole entry): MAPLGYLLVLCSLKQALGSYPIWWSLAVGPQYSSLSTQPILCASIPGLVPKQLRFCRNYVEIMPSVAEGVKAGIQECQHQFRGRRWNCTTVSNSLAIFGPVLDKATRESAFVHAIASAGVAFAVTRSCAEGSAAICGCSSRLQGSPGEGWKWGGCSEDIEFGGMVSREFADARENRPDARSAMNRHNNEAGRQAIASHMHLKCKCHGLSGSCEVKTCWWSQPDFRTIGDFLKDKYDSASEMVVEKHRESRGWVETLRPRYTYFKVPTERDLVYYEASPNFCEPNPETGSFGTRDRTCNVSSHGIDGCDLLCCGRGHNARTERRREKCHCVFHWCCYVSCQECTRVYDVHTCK
Chain of Tyrosine-protein phosphatase non-receptor type 5 (P54829 whole entry): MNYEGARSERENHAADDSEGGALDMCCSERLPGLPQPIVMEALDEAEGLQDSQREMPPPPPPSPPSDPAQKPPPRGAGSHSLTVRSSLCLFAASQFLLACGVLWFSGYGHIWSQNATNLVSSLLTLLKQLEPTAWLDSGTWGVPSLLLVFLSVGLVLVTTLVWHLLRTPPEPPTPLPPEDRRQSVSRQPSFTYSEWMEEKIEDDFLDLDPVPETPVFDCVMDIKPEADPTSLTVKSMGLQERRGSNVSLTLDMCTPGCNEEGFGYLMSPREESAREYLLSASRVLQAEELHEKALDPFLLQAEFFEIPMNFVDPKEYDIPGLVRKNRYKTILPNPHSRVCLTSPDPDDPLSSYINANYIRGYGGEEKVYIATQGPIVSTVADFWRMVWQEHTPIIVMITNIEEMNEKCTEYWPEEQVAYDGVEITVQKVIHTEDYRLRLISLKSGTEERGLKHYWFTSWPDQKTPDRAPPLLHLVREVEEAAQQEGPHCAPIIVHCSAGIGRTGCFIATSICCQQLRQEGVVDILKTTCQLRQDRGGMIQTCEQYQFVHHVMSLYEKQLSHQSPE
Chain of Dual specificity protein phosphatase 3 (P51452 whole entry): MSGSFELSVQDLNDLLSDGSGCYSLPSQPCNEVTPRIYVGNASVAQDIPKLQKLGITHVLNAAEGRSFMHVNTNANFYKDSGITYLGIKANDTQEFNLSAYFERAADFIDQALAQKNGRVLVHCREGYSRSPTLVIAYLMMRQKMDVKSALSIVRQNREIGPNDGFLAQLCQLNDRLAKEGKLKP

C/C=C/C=C/C(=O)C1=C(O)[C@]2(C)C(=O)C(C)(O)[C@H]1[C@H]([C@]1(C)OC(O)=C(C)C1=O)[C@H]2C(=O)/C=C/C=C/C (some centres undefined)
IC50 [1]: 5.92 µM (active) | IC50 [2]: 122 µM (active) | IC50 [3]: 5.25 µM (active)

CC(C)CN(C(=O)COC(=O)c1ccc(Br)cc1)c1c(N)n(Cc2ccccc2)c(=O)[nH]c1=O
IC50 (HEK293 [4]): 13.4 µM (inactive) | EC50 (Insulin-degrading enzyme [5]): > 54.7 µM (inactive) | EC50 (Insulin-degrading enzyme [6]): > 54.7 µM (inactive) | EC50 (HEK293 [7]): > 55.9 µM (inactive)

Cc1c(OCC(=O)NC2CC(C)(C)NC(C)(C)C2)ccc2c1oc(=O)c1ccccc12
AC50 [8]: 22.4 µM (active) | AC50 [9]: 27.1 µM (active)

Cc1cc(O)nc(SCC(=O)/C=C2\N(C)c3ccccc3C2(C)C)n1
IC50 (Protein Wnt-3a): 50 µM (inactive)

CC(C)OCCCN=C(S)Nc1ccc(S(N)(=O)=O)cc1
IC50 [10]: 1.08 µM (active) | IC50 [11]: 0.771 µM (active) | IC50 [12]: 53 µM (inactive)

COCCCn1c(C)cc(C(=O)CN2c3cccc4cccc(c34)S2(=O)=O)c1C
IC50 [13]: 60.2 µM (inactive)

Cc1cc(/C=C2/SC(=S)N(c3ccc([N+](=O)[O-])cc3)C2=O)c(C)n1-c1cccnc1
EC50 [14]: > 60 µM (inconclusive) | AC50 (INS1): 0.862 µM (active) | EC50 [15]: 0.915 µM (active) | IC50 (Protein Wnt-3a): 8.94 µM (active)

COc1ccccc1Oc1nnnn1-c1ccc(C(N)=O)cc1
IC50 (Steroidogenic factor 1): 7.85 µM (active) | IC50 [16]: 35.9 µM (inactive) | IC50 [17]: 35.9 µM (inactive)

Cc1cc(NS(=O)(=O)c2ccc(NC(=S)NC(=O)c3cccc(S(=O)(=O)N(C)C)c3)cc2)no1
IC50 [13]: 46.6 µM (inactive)

CCOC(=O)C1(CC2CC2)CCN(Cc2cnc(N(C)C)s2)CC1
IC50 (HEK293 [4]): > 89.3 µM (inactive) | EC50 (Insulin-degrading enzyme [5]): > 54.7 µM (inactive) | EC50 (Insulin-degrading enzyme [6]): > 54.7 µM (inactive) | EC50 (HEK293 [7]): > 56 µM (inactive)

O=C(COC(=O)c1ccc[n+]([O-])c1)Nc1ccc([N+](=O)[O-])cc1Cl
IC50 (Steroidogenic factor 1): 4.98 µM (active) | IC50 [16]: 35.9 µM (inactive) | IC50 [17]: 3.98 µM (active)

CCN(CC)CCCNc1nc2cc(OC)c(OC)cc2c2nc(-c3ccccc3)nn12
IC50 [18]: 1.11 µM (active) | IC50 [19]: > 20 µM (inactive) | IC50 [20]: 2.07 µM (active) | EC50 [14]: 12 µM (active) | IC50 [3]: > 99 µM (inactive) | AC50 [8]: 2.03 µM (active) | EC50 [21]: 4.58 µM (active) | CC50 [22]: 19.9 µM (active) | EC50 [15]: 0.709 µM (active) | EC50 [23]: 7.1 µM (active)

— ChEMBL document CHEMBL1201862, “PubChem BioAssay data set” (2004)
